Experimental data published in the supplement of paper PMC11208160.

Assay: recombinant barcode read abundance after kanamycin selection (control-corrected) (log10(CPM+1)); higher = more efficient recombination; sequences stand for … in AGTGCAGAGAAAATCGGCCAGTTTTCTCTGCCTGCAGTCCGCATGCCGT…AGATTTATGCAGCGGACTGCCTTTCTCCCAAAGTGATAAACCGGACAGTATCATGGACCGGTTTTCCCGGTAATCCGTATTTGCAAGGTTGGTTTCACT; site = the 11-nt target
Experimental: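 Pooled E. coli target-specificity screen for the IS621 bridge recombinase. Each library plasmid pairs an 11-nt target (CT core) with a bridge RNA whose target-binding loop (9-nt LTG + 4-nt RTG) is reprogrammed; the rest of the 177-nt WT IS621 bridge RNA scaffold is fixed. The plasmid is co-electroporated with a WT donor plasmid; recombinase is induced with 0.1 mM IPTG and recombinants are selected on kanamycin. Recombinant barcodes are sequenced, converted to CPM, averaged over two biological replicates and corrected by the unselected control CPM. Molecule = full bridge RNA written as DNA: LTG = specificity nt 1-9, RTG = reverse complement of specificity nt 8-11, in the WT scaffold.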
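Note: IS621 recombinase and bridge RNA in Escherichia coli cells.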

Sequence	recombinant barcode read abundance (log10)
ACAAAGCCTTGGGTTCTAACCTGTTGCCT (site ACAAAGCCTAG)	0.85
ACAAAGCCTTGGGTTCTAACCTGTTGCCT (site ACAAATCCTAG)	0.0552
ACAAATACTTGGGTTCTAACCTGTTGCGG (site ACAAATACTCC)	0.905
ACAAATACTTGGGTTCTAACCTGTTGCGG (site CGTTCACCTAT)	0.11
ACAAGCCCTTGGGTTCTAACCTGTTGCCT (site AAAAGCCCTAG)	0.189
ACAAGCCCTTGGGTTCTAACCTGTTGCCT (site ACAAGCCCTAG)	0.643
ACAAGCCCTTGGGTTCTAACCTGTTGCCT (site AGAAGCCCTAG)	0.0546
ACAAGCCCTTGGGTTCTAACCTGTTGCCT (site ATAAGCCCTAG)	0.0711
ACAAGGCCTTGGGTTCTAACCTGTTGCCT (site ACAAGGCCTAG)	0.16
ACAAGGCCTTGGGTTCTAACCTGTTGCCT (site CCAAGGCCTAG)	0.784
ACAAGGCCTTGGGTTCTAACCTGTTGCCT (site GCAAGGCCTAG)	0.126
ACAAGGCCTTGGGTTCTAACCTGTTGCCT (site TCAAGGCCTAG)	0.0644
ACAATAGCTTGGGTTCTAACCTGTTGCCT (site ACAATACCTCG)	0.0732
ACAATAGCTTGGGTTCTAACCTGTTGCCT (site ACAATAGCTAG)	1.64
ACACAGACTTGGGTTCTAACCTGTTGCGC (site ACAAAGACTGC)	0.174
ACACAGACTTGGGTTCTAACCTGTTGCGC (site ACACAGACTGC)	1.08
ACACAGACTTGGGTTCTAACCTGTTGCGC (site ACAGAGACTGC)	0.114
ACACAGACTTGGGTTCTAACCTGTTGCGC (site ACATAGACTGC)	0.00702
ACACCCTCTTGGGTTCTAACCTGTTGCTT (site ACACCCTCTAA)	2.5
ACACCCTCTTGGGTTCTAACCTGTTGCTT (site CGACCCTCTAA)	0.208
ACAGAATCTTGGGTTCTAACCTGTTGCCT (site ACAGAATCTAG)	1.69

Sequence	recombinant barcode read abundance (log10)
ACAGAATCTTGGGTTCTAACCTGTTGCCT (site ACAGGATCTAA)	0.0318
ACAGACGCTTGGGTTCTAACCTGTTGCCT (site ACAGACGCTAG)	0.721
ACAGACGCTTGGGTTCTAACCTGTTGCCT (site ACAGCCGCTAG)	0.151
ACAGACGCTTGGGTTCTAACCTGTTGCCT (site ACAGGCGCTAG)	0.163
ACAGACGCTTGGGTTCTAACCTGTTGCCT (site ACAGTCGCTAG)	0.0906
ACAGAGACTTGGGTTCTAACCTGTTGCTA (site ACAGAGACTGT)	0.121
ACAGAGACTTGGGTTCTAACCTGTTGCTA (site ACAGAGACTTA)	1.35
ACAGTAGCTTGGGTTCTAACCTGTTGCGG (site ACAGTAGCTCC)	1.81
ACAGTAGCTTGGGTTCTAACCTGTTGCGG (site ACAGTAGCTCG)	0.248
ACAGTGACTTGGGTTCTAACCTGTTGCCT (site ACAATGACTAG)	1.23
ACAGTGACTTGGGTTCTAACCTGTTGCCT (site ACAGTGACTAG)	2.49
ACAGTGGCTTGGGTTCTAACCTGTTGCGG (site ACAGTGGCTCC)	1.53
ACAGTGGCTTGGGTTCTAACCTGTTGCGG (site CTTCGCCCTAA)	0.0955
ACAGTGTCTTGGGTTCTAACCTGTTGCGG (site ACAATGTCTCC)	1.37
ACAGTGTCTTGGGTTCTAACCTGTTGCGG (site ACACTGTCTCC)	0.0611
ACAGTGTCTTGGGTTCTAACCTGTTGCGG (site ACAGTGTCTCC)	2.77
ACAGTGTCTTGGGTTCTAACCTGTTGCGG (site ACATTGTCTCC)	0.324
ACATAAGCTTGGGTTCTAACCTGTTGCTA (site ACATAAGCTTA)	1.11
ACATAAGCTTGGGTTCTAACCTGTTGCTA (site GGCGGCTCTAG)	0.18
ACATAGACTTGGGTTCTAACCTGTTGCGC (site ACAAAGACTGC)	0.084
